# Experiments:
# duck salad = experiment: Test B flood test duck salad; assay type: in vivo, Heteranthera limosa
# How it was run: (§1)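 Read-out is a visual response score from 0 (no effect) to 10 (complete control), assigned by comparison with untreated controls. Treatment was applied at the 2-leaf stage, and plants stayed in the greenhouse for twelve to sixteen days before scoring.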
# purple nutsedge = experiment: Test B pre/postemergence purple nutsedge; assay type: in vivo, Cyperus rotundus
# How it was run: (§2)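 Response is a visual 0-to-10 score relative to untreated plants, where 0 means no effect and 10 means complete control, taken twelve to sixteen days after application. Treatments went onto soil at planting and onto foliage of 1- to 4-leaf plants, using a surfactant-containing non-phytotoxic solvent.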
# crabgrass = experiment: Test B pre/postemergence crabgrass; assay type: in vivo, Digitaria sanguinalis
# How it was run: as §2
# velvetleaf = experiment: Test B pre/postemergence velvetleaf; assay type: in vivo, Abutilon theophrasti
# How it was run: as §2
# soybean = experiment: Test B pre/postemergence soybean; assay type: in vivo, Glycine max
# How it was run: as §2
# sugar beet = experiment: Test B pre/postemergence sugar beet; assay type: in vivo, Beta vulgaris
# How it was run: as §2
# smallflower flatsedge = experiment: Test B flood test smallflower flatsedge; assay type: in vivo, Cyperus difformis
# How it was run: as §1
# giant foxtail = experiment: Test B pre/postemergence giant foxtail; assay type: in vivo, Setaria faberii
# How it was run: as §2
# cocklebur = experiment: Test B pre/postemergence cocklebur; assay type: in vivo, Xanthium strumarium
# How it was run: as §2
# morningglory = experiment: Test B pre/postemergence morningglory; assay type: in vivo, Ipomoea hederacea
# How it was run: as §2
# blackgrass = experiment: Test B pre/postemergence blackgrass; assay type: in vivo, Alopecurus myosuroides
# How it was run: as §2
# wild oat = experiment: Test B pre/postemergence wild oat; assay type: in vivo, Avena fatua
# How it was run: as §2
# rape = experiment: Test B pre/postemergence rape; assay type: in vivo, Brassica napus
# How it was run: as §2
# surinam grass = experiment: Test B pre/postemergence surinam grass; assay type: in vivo, Brachiaria decumbens
# How it was run: as §2
# wheat = experiment: Test B pre/postemergence wheat; assay type: in vivo, Triticum aestivum
# How it was run: as §2
# corn = experiment: Test B pre/postemergence corn; assay type: in vivo, Zea mays
# How it was run: as §2
# [1] = Postemergence block (flood test species), Rate 250 g/ha, scale 0 to 10
# [2] = Postemergence section (flood test species), Rate 500 g/ha, scale of 0 to 10 where 0 is no effect and 10 is complete control
# [3] = Rate 62 g/ha, Postemergence (flood test), scale 0 to 10, 0 no effect, 10 complete control
# [4] = Rate 125 g/ha, Postemergence section (flood test species), scale 0 to 10, 0 is no effect, 10 is complete control
# [5] = Postemergence, Rate 250 g/ha, scale 0 to 10
# [6] = Postemergence, Rate 500 g/ha, scale of 0 to 10 where 0 is no effect and 10 is complete control
# [7] = Preemergence, Rate 62 g/ha, scale 0 to 10 (0 no effect, 10 complete control)
# [8] = Preemergence, Rate 125 g/ha, scale of 0 to 10 where 0 is no effect and 10 is complete control
# [9] = Preemergence, Rate 250 g/ha, scale 0 to 10, 0 is no effect, 10 is complete control
# [10] = Preemergence, Rate 500 g/ha, scale 0 to 10, 0 is no effect, 10 is complete control
# [11] = Rate 62 g/ha, Postemergence, scale 0 to 10, 0 no effect, 10 complete control
# [12] = Rate 125 g/ha, Postemergence, scale 0 to 10, 0 is no effect, 10 is complete control
compound,measurement,setting,value
CC(C)N(C(=O)n1oc(=O)n(CCC#N)c1=O)c1ccccc1 [Compound 436],Ducksalad plant response rating,duck salad; [1],0
same,Ducksalad plant response rating,duck salad; [2],0
same,Ducksalad plant response rating,duck salad; [3],0
same,Ducksalad plant response rating,duck salad; [4],0
same,Nutsedge plant response rating,purple nutsedge; [5],0
same,Nutsedge plant response rating,purple nutsedge; [6],3
same,"Plant response rating, Nutsedge",purple nutsedge; [7],0
same,"Plant response rating, Nutsedge",purple nutsedge; [8],0
same,Nutsedge plant response rating,purple nutsedge; [9],0
same,Nutsedge plant response rating,purple nutsedge; [10],5
same,Nutsedge plant response rating,purple nutsedge; [11],0
same,Nutsedge plant response rating,purple nutsedge; [12],0
same,Crabgrass plant response rating,crabgrass; [5],1
same,Crabgrass plant response rating,crabgrass; [6],9
same,"Plant response rating, Crabgrass",crabgrass; [7],0
same,"Plant response rating, Crabgrass",crabgrass; [8],0
same,Crabgrass plant response rating,crabgrass; [9],0
same,Crabgrass plant response rating,crabgrass; [10],10
same,Crabgrass plant response rating,crabgrass; [11],0
same,Crabgrass plant response rating,crabgrass; [12],0
same,Velvetleaf plant response rating,velvetleaf; [5],0
same,Velvetleaf plant response rating,velvetleaf; [6],3
same,"Plant response rating, Velvetleaf",velvetleaf; [7],0
same,"Plant response rating, Velvetleaf",velvetleaf; [8],0
same,Velvetleaf plant response rating,velvetleaf; [9],0
same,Velvetleaf plant response rating,velvetleaf; [10],7
same,Velvetleaf plant response rating,velvetleaf; [11],0
same,Velvetleaf plant response rating,velvetleaf; [12],0
same,Soybean plant response rating,soybean; [5],0
same,Soybean plant response rating,soybean; [6],4
same,"Plant response rating, Soybean",soybean; [7],0
same,"Plant response rating, Soybean",soybean; [8],0
same,Soybean plant response rating,soybean; [9],0
same,Soybean plant response rating,soybean; [10],0
same,Soybean plant response rating,soybean; [11],0
same,Soybean plant response rating,soybean; [12],0
same,Sugarbeets plant response rating,sugar beet; [5],0
same,Sugarbeets plant response rating,sugar beet; [6],0
same,"Plant response rating, Sugarbeets",sugar beet; [7],0
same,"Plant response rating, Sugarbeets",sugar beet; [8],0
same,Sugarbeets plant response rating,sugar beet; [9],0
same,Sugarbeets plant response rating,sugar beet; [10],5
same,Sugarbeets plant response rating,sugar beet; [11],0
same,Sugarbeets plant response rating,sugar beet; [12],0
same,S. Flatsedge plant response rating,smallflower flatsedge; [1],0
same,S. Flatsedge plant response rating,smallflower flatsedge; [2],0
same,S. Flatsedge plant response rating,smallflower flatsedge; [3],0
same,S. Flatsedge plant response rating,smallflower flatsedge; [4],0
same,Giant foxtail plant response rating,giant foxtail; [5],1
same,Giant foxtail plant response rating,giant foxtail; [6],9
same,"Plant response rating, Giant foxtail",giant foxtail; [7],0
same,"Plant response rating, Giant foxtail",giant foxtail; [8],0
same,Giant foxtail plant response rating,giant foxtail; [9],0
same,Giant foxtail plant response rating,giant foxtail; [10],10
same,Giant foxtail plant response rating,giant foxtail; [11],0
same,Giant foxtail plant response rating,giant foxtail; [12],0
same,Cocklebur plant response rating,cocklebur; [5],0
same,Cocklebur plant response rating,cocklebur; [6],0
same,"Plant response rating, Cocklebur",cocklebur; [7],0
same,"Plant response rating, Cocklebur",cocklebur; [8],0
same,Cocklebur plant response rating,cocklebur; [9],0
same,Cocklebur plant response rating,cocklebur; [10],0
same,Cocklebur plant response rating,cocklebur; [11],0
same,Cocklebur plant response rating,cocklebur; [12],0
same,Morningglory plant response rating,morningglory; [5],2
same,Morningglory plant response rating,morningglory; [6],10
same,"Plant response rating, Morningglory",morningglory; [7],0
same,"Plant response rating, Morningglory",morningglory; [8],0
same,Morningglory plant response rating,morningglory; [9],0
same,Morningglory plant response rating,morningglory; [10],1
same,Morningglory plant response rating,morningglory; [11],0
same,Morningglory plant response rating,morningglory; [12],0
same,Blackgrass plant response rating,blackgrass; [5],0
same,Blackgrass plant response rating,blackgrass; [6],9
same,"Plant response rating, Blackgrass",blackgrass; [7],0
same,"Plant response rating, Blackgrass",blackgrass; [8],0
same,Blackgrass plant response rating,blackgrass; [9],0
same,Blackgrass plant response rating,blackgrass; [10],9
same,Blackgrass plant response rating,blackgrass; [11],0
same,Blackgrass plant response rating,blackgrass; [12],0
same,Wild oats plant response rating,wild oat; [5],0
same,Wild oats plant response rating,wild oat; [6],3
same,"Plant response rating, Wild oats",wild oat; [7],0
same,"Plant response rating, Wild oats",wild oat; [8],0
same,Wild oats plant response rating,wild oat; [9],0
same,Wild oats plant response rating,wild oat; [10],10
same,Wild oats plant response rating,wild oat; [11],0
same,Wild oats plant response rating,wild oat; [12],0
same,Rape plant response rating,rape; [5],0
same,Rape plant response rating,rape; [6],4
same,"Plant response rating, Rape",rape; [7],0
same,"Plant response rating, Rape",rape; [8],0
same,Rape plant response rating,rape; [9],0
same,Rape plant response rating,rape; [10],10
same,Rape plant response rating,rape; [11],0
same,Rape plant response rating,rape; [12],0
same,B. signalgrass plant response rating,"surinam grass; Postemergence, Rate 250 g/ha, scale 0 to 10, 0 no effect, 10 complete control",0
same,B. signalgrass plant response rating,surinam grass; [6],8
same,"Plant response rating, B. signalgrass",surinam grass; [7],0
same,"Plant response rating, B. signalgrass",surinam grass; [8],0
same,B. signalgrass plant response rating,surinam grass; [9],0
same,B. signalgrass plant response rating,surinam grass; [10],10
same,B. signalgrass plant response rating,surinam grass; [11],0
same,B. signalgrass plant response rating,surinam grass; [12],0
same,Wheat plant response rating,wheat; [5],0
same,Wheat plant response rating,wheat; [6],7
same,"Plant response rating, Wheat",wheat; [7],0
same,"Plant response rating, Wheat",wheat; [8],0
same,Wheat plant response rating,wheat; [9],0
same,Wheat plant response rating,wheat; [10],5
same,Wheat plant response rating,wheat; [11],0
same,Wheat plant response rating,wheat; [12],0
same,Corn plant response rating,corn; [5],0
same,Corn plant response rating,corn; [6],5
same,"Plant response rating, Corn",corn; [7],0
same,"Plant response rating, Corn",corn; [8],0
same,Corn plant response rating,corn; [9],0
same,Corn plant response rating,corn; [10],9
same,Corn plant response rating,corn; [11],0
same,Corn plant response rating,corn; [12],0

# — patent US6737383B1, “Herbicidal oxadiazolidines” (priority 1999, dated 2004)
